Measurements published in patent publication US20200268832A1, “COMPOSITIONS FOR DELIVERY TO AND TREATMENT OF ATHEROSCLEROTIC PLAQUES” (Sanford Burnham Prebys Medical Discovery Institute, priority 2015, published 2020).
“Also recorded” adds a separate entry of the source.

Assays:
[1] = molecular target: T1, p32 protein (Homo sapiens, UniProt Q07021); assay: NMR 1D 1H-aliph spectra of p32 with compounds; format: binding; conditions: 5 μM p32; compounds 100 and 500 μM; TT1 70 μM
T1 construct: 6xHis; host or cells: Rosetta-gami-2 cells (Novagen); an E. coli strain by own knowledge
T1 sequence (Q07021 74-282): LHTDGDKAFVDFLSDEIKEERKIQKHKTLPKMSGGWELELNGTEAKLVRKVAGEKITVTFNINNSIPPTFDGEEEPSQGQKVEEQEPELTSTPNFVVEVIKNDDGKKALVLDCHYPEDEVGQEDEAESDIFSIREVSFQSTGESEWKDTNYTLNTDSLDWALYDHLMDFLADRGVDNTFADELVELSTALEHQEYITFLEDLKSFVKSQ
Description: FIGS. 3A and 3B are graphs showing NMR based evaluation of binding of compounds 4014008 and 7933989 to P32 protein. The ID ^1H-aliph spectra of 5 μM P32 in the absence (bottom) and presence of compounds #4014008 (A) and #7933989 (B) at 100 μM (second from bottom) and 500 μM (second from top) were collected. As a control, the spectrum of p32 in the presence of the known peptide binder, TT1 at 70 μM, was also collected (top).
All the NMR experiments were carried out on a Bruker Avance 700 spectrometer equipped with a TCI cryoprobe at T=293 K. For structure determinations, the peptide concentration was 100 μM in the NMR buffer in presence of 150 μM of ZnCl2. One-dimensional (1D) 1H spectra were acquired with a spectral width of 8417.51 Hz, relaxation delay 1.0 s, 8 k data points for acquisition and 16 k for transformation.

[2] = molecular target: T1, p32 protein; assay: TT1 phage binding inhibition assay (ELISA-type); conditions: 100 μM compound
Description: The binding of individual phage to p32 was verified using ELISA-type of phage binding assay. 96-well plates (Corning Life Sciences, Tewksbury, Mass., USA) were coated with 100 μL of 5 μg/mL p32 in PBS at 4° C. overnight, washed 3 times with 200 μL of PBST (PBS+0.05% Tween-20), blocked with 200 μL of 0.5% bovine serum albumin (BSA) in PBST for 1 h at 37° C., and washed 3 times with PBST. Phages (1.11*10^8 pfu in 100 μL PBST) were added to p32-coated/BSA-blocked wells, the plate was incubated at 4° C. overnight, and washed 3 times with PBST. Subsequently, the plates were incubated with 100 μL in-house prepared polyclonal rabbit anti-T7 antibody diluted 1:1000 in PBST for 1 h at 4° C., and washed 3 times with washing buffer. Horseradish peroxidase (HRP)-labeled anti-rabbit IgG (Sigma-Aldrich) was diluted 1:1000 in PBS, and 100 μL was added to the wells, followed by 1 h incubation at 4° C. and washing 3 times. Next, 100 μL of OPD silver and gold substrate (Sigma-Aldrich) was added to the wells and incubated at room temperature until visible color was observed (<30 min). The reaction was stopped by adding 50 μL of 1M H2SO4, and the plate was read at 492 nm (Varioskan Flash, Thermo Scientific, Waltham, Mass., USA).
The ability to inhibit TT1-phage binding to p32 protein was used as a secondary assay to verify the hit compounds. The competition assay was based on the phage binding assay described above with minor modifications. ELISA plates were coated with 2.5 μg/mL p32, incubated with phages (1.11*10^8 pfu in 100 μL PBST) and 100 μM hit compounds at 4° C. overnight, and followed by antibody incubation and chromogenic reaction. Negative controls included DMSO at concentration it was used to dissolve the hit compounds.

[3] = system: plaque macrophages; assay: Cytotoxicity to plaque macrophages ex vivo; format: cell-based
Description: Two of the hits from the screen passed all the specificity tests, and one of these has been characterized to some extent in vivo (FIG. 10). […] Thus, the discovered compounds, especially #008 and #7933989, served as a starting point for other compounds with affinity for p32. Orally available compounds provide significant new opportunities in prevention and treatment of atherosclerosis.

[4] = system: orthotopic MCF10Ca1A breast tumors; assay: In vivo homing of iron oxide nanoworms in tumor-bearing mice; conditions: IV, 7.5 mg Fe/kg, 5-6 hours circulation
Description: FIG. 10 is a graph of nanoparticles functionalized with compound #008 homing to tumors and atherosclerotic plaques. Orthotopic MCF10Ca1Abreast tumors from mice injected with iron oxide […] (NWs) (7.5 mg/kg of Fe) coated with FAM-#008 or with an inert peptide (control). The NWs were allowed to circulate for 5 hours, the mice were perfused through the heart with PBS and tumors, and organs were collected. Quantification of fluorescence carried out with ImageJ software. Multiple sections from three tumors were analyzed (P<0.0001, Student's t-test).
Animal experimentation was performed according to the procedures approved by the Animal Research Committee at the Sanford-Burnham Medical Research Institute, San Diego. […] FAM labeled #4014008-NWs were injected into the tail vein (7.5 mg of iron per kilogram of body weight), the animals were euthanized 5-6 hours after the injection by cardiac perfusion with PBS under anesthesia, and organs were dissected and analyzed for particle homing. […]
For immunostaining, […] tissue sections were first incubated for 1 hour at room temperature with 10% serum from the species in which the secondary antibody was generated, followed by incubation with the primary antibody overnight at 4° C. […] The primary antibodies were detected with Alexa 594 goat anti-rat and 594 goat anti-rabbit secondary antibodies (1:1000; Molecular Probes). […]

For Cc1cnccc1NCCN [Compound 4014008, N-(3-methylpyridin-4-yl)ethane-1,2-diamine], the “perturbations in 1D 1H-aliphatic spectra of p32” value [1] was “caused similar perturbations; also recorded: shift in the peak at around −0.3 ppm”, the inhibition at 100 µM [2] was 50% and the “cytotoxicity to plaque macrophages” value [3] was “cytotoxic to plaque macrophages”. The “homing to MCF10Ca1A tumors” value [4] was “specifically home to tumors”.
